{
  "source": "patent EP2873670A1",
  "about": "“Bis azainositol zirconium complexes for X-ray imaging” (Bayer Pharma Aktiengesellschaft, priority 2013, dated 2015)",
  "assay": "Stability of bis azainositol Zirconium complexes under heat sterilization (HPLC with ICP-MS detection, ICP-OES)",
  "format": "physicochemical",
  "conditions": "absolute stability; aqueous, buffered solution at pH 7.4, 5 mmol/L of the compound, heated to 121 °C for 45 minutes in a steam autoclave",
  "procedure": "Stability of bis azainositol Zirconium complexes\nThe stability of bis azainositol Zirconium complexes was determined in aqueous, buffered solution at pH 7.4. The solution containing 5 mmol/L of the compound in a tightly sealed vessel was heated to 121 °C for 45 minutes in a steam autoclave. The Zirconium concentration of the solution was determined by ICP-OES before and after heat treatment. The integrity of the compound was determined by HPLC analysis before and after heat treatment. Absolute stability was calculated as the ratio of the peak area of the compound after and before the heat treatment multiplied with the ratio of the metal concentration of the solution after and before heat treatment.\n• Column 1: Reversed phase C18. • Column 2: ZIC®-HILIC. • Solvent A1: 0,5 mM tetrabutylammonium phosphate pH 6 • Solvent A2: 0.1 % formic acid in water • Solvent B1: methanol • Solvent B2: acetonitrile\nThe use of columns, solvents, flow rate and gradients is detailed in the table below. Detector: element specific detection by ICP-MS, running at m/z 90, the most abundant isotope of Zirconium.",
  "data": [
    {"substance": "Bis[µ3-3,3',3\"-({[1R-(1α,2α,3α,4α,5α,6α)]-2,4,6-trihydroxylato-1κ^2O^2O^6, 2κ^2O^2O^4,3κ^2O^4O^6-cyclohexane-1,3,5-triyl}tris{methylimino-1κN^1,2κN^3,3κN^5})tripropanoato-1κO,2κO',3κO\"]trizirconium(IV) [Example 3]", "values": [
      {"measurement": "Stability", "result": 100, "unit": "%"}
    ]},
    {"substance": "Hydroxido-3κO-[µ3-3,3',3\"-({[1R-(1α,2α,3α,4α,5α,6α)]-2,4,6-trihydroxylato-1κ^2O^2O^6, 2κO^2O^4,3κ^2O^4O^6-cyclohexane-1,3,5-triyl]tris{methylimino-1κN^1,2κN^3,3κN^5}) tri-propanoato-1κO,2κO',3κO\"][µ3-3,3'-({[1R-(1α,2α,3α,4α,5α,6α)]-2,4,6-trihydroxylato-1κ^2O^2O^6,2κ^2O^2O^4,3κ^2O^4O^6-5-[methylamino-3κN^5]cyclohexane-1,3-diyl}bis{methyl-imino-1κN^1,2κN^3})dipropanonato-1κO,2κO']trizirconium(IV) [Example 4]", "values": [
      {"measurement": "Stability", "result": 100, "unit": "%"}
    ]}
  ]
}
